Measurements from patent US9315517B2, “Imidazol-piperidinyl derivatives as modulators of kinase activity” (Merck Patent GmbH, priority 2012, dated 2016).

What was measured:
His-AKT (Full Length) = target: T1, His-AKT (Full Length) (Homo sapiens, UniProt P31749); assay: AKT enzyme assay; format: biochemical; conditions: enzyme inhibition; 160 uM ATP, 90 min at 25° C., Caliper mobility shift
T1 construct: 0.1 ng/μl His-AKT (Full Length); His; purchased Invitrogen P2999
Protocol: (§1) The IC50 values reported for the compounds in the Experimental section were derived from the following protocol for the p70S6K and AKT enzyme assays.
A TTP Mosquito liquid handling instrument was used to place 125 nl of the appropriate concentration of inhibitor in 100% DMSO (for a dose response curve calculation) into each well of a 384-well plate. To this reaction components were added to a final volume of 12.5 μl: • 0.1 ng/μl His-AKT (Full Length), (Invitrogen, Part # P2999, Lot # 641228C). • 160 uM ATP (Fluke, 02055) • 1 mM DTT (Sigma, D0632) • 1 mM MgCl2 (Sigma, M1028) • 1 μM substrate peptide (sequence FITC-AHA-GRPRTSSFAEG-NH2), synthesized by Tufts Peptide Synthesis service. • 100 mM HEPES pH 7.5 (Calbiochem, 391338) • 0.015% Brij-35 (Sigma, B4184)
The reaction was incubated for 90 min at 25° C., and then stopped by the addition of 70 μl of Stop buffer (100 mM HEPES pH 7.5, 0.015% Brij-35, 10 mM EDTA (Sigma, E7889)).
The plate was read on a Caliper LC 3000 in an Off-Chip mobility shift assay format, using the following parameters for a 12-sipper chip: screening pressure −2.3 psi, upstream voltage −500, and downstream voltage −3000. These conditions caused unphosphorylated substrate and phosphorylated product peptide to resolve as separate peaks allowing direct measurement of percentage of conversion of substrate to product. The percent conversion was plotted against concentration of inhibitor to produce a sigmoidal dose response curve, from which an IC50 was calculated.

[1] = target: T2, P70S6K (T412E mutant, Millipore) (Homo sapiens, UniProt P23443, T412E); assay: P70S6K enzyme assay; format: biochemical; conditions: enzyme inhibition; 24 μM ATP, 90 min at 25° C., Caliper mobility shift
T2 construct: purchased Millipore
Protocol: as §1
P70S6K inhibitor compounds were diluted and plated in 96 well plates. A reaction mixture including the following components was then added to the compound plate to initiate the enzyme reaction; P70S6K (3 nM, T412E mutant, Millipore) was mixed with 24 μM ATP in an assay buffer containing 100 mM Hepes (pH 7.5), 5 mM MgCl2, 1 mM DTT, 0.015% Brij and 1 μM of the substrate peptide FITC-AHA-AKRRRLSSLRA-OH (derived from the S6 ribosomal protein sequence, FITC=fluorescein isothiocyanate, AHA=6-aminohexanoic acid). The reaction was incubated for 90 min at 25° C., before the addition of 10 mM EDTA to stop the reaction. The proportion of substrate and product (phosphorylated) peptide was analysed on a Caliper Life Sciences Lab Chip 3000, using a pressure of −1.4 psi, and upstream and downstream voltages of −3000 and −700 respectively. Product peaks were resolved before substrate peaks on the resulting chromatograms.

T2 sequence (P23443 whole entry T412E): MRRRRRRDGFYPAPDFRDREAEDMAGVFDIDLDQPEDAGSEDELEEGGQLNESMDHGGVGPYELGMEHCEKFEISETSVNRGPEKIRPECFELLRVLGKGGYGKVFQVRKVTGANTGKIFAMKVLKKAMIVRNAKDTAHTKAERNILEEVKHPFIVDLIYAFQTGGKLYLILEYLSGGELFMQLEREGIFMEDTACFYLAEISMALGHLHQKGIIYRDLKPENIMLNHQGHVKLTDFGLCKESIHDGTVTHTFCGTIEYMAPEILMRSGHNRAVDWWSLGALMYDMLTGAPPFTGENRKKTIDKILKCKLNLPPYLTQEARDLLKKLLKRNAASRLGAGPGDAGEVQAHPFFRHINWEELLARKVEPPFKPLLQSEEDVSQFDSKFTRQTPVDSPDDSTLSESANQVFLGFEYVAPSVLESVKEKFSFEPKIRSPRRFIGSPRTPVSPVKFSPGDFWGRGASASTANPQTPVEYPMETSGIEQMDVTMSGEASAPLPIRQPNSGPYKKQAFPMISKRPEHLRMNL
T1 sequence (P31749 whole entry): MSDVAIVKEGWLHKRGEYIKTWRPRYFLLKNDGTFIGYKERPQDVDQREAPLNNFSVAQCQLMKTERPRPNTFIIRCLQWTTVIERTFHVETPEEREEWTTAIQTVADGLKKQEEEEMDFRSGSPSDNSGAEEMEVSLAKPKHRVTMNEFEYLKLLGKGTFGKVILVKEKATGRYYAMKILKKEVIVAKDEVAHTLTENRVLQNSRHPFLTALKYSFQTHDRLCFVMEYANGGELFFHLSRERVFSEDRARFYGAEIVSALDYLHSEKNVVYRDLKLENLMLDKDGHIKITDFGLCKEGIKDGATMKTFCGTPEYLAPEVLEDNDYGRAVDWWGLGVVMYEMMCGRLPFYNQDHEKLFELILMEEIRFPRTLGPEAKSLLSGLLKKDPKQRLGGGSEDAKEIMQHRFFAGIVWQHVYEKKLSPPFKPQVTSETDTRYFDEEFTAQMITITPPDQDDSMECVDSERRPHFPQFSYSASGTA

IC50 (His-AKT (Full Length)) [nM]	IC50 [1] [nM]	Compound
501 to 1000	101 to 500	O=C1CNc2ncnc(N3CCC(c4nc(-c5ccccc5)cn4CCN4CCCC4)CC3)c2N1 [Compound A45, 4-{4-[4-Phenyl-1-(2-pyrrolidin-1-yl-ethyl)-1H-imidazol-2-yl]-piperidin-1-yl}-7,8-dihydro-5H-pteridin-6-one]
101 to 500	26 to 100	CN(C)CCn1cc(-c2ccc(F)c(F)c2)nc1C1CCN(c2ncnc3c2NC(=O)CN3)CC1 [Compound A46, 4-{4-[4-(3,4-DifluoroPhenyl)-1-(2-dimethylamin-1-yl-ethyl)-1H-imidazol-2-yl]-piperidin-1-yl}-7,8-dihydro-5H-pteridin-6-one]
101 to 500	101 to 500	CN(C)CCn1cc(-c2cccc(Cl)c2)nc1C1CCN(c2ncnc3c2NC(=O)CN3)CC1 [Compound A47, 4-{4-[4-(3-ChloroPhenyl)-1-(2-dimethylamin-1-yl-ethyl)-1H-imidazol-2-yl]-piperidin-1-yl}-7,8-dihydro-5H-pteridin-6-one]
> 1000	> 1000	CN(C)CCn1cc(-c2cccnc2)nc1C1CCN(c2ncnc3c2NC(=O)CN3)CC1 [Compound A48, 4-{4-[4-(Pyridin-3-yl)-1-(2-dimethylamin-1-yl-ethyl)-1H-imidazol-2-yl]-piperidin-1-yl}-7,8-dihydro-5H-pteridin-6-one]
> 1000	101 to 500	Cc1ccc(-c2cn(CCN(C)C)c(C3CCN(c4ncnc5c4NC(=O)CN5)CC3)n2)cc1 [Compound A49, 4-{4-[4-(4-MethylPhenyl)-1-(2-dimethylamin-1-yl-ethyl)-1H-imidazol-2-yl]-piperidin-1-yl}-7,8-dihydro-5H-pteridin-6-one]
501 to 1000	101 to 500	CN(C)CCn1cc(-c2ccc(F)cc2)nc1C1CCN(c2ncnc3c2NC(=O)CN3)CC1 [Compound A50, 4-{4-[4-(4-FluoroPhenyl)-1-(2-dimethylamin-1-yl-ethyl)-1H-imidazol-2-yl]-piperidin-1-yl}-7,8-dihydro-5H-pteridin-6-one]
501 to 1000	101 to 500	COc1cccc(-c2cn(CCN(C)C)c(C3CCN(c4ncnc5c4NC(=O)CN5)CC3)n2)c1 [Compound A51, 4-{4-[4-(3-Methoxy-phenyl)-1-(2-dimethylamin-1-yl-ethyl)-1H-imidazol-2-yl]-piperidin-1-yl}-7,8-dihydro-5H-pteridin-6-one]
> 1000	> 1000	COc1ccc(-c2cn(CCN(C)C)c(C3CCN(c4ncnc5c4NC(=O)CN5)CC3)n2)cc1 [Compound A52, 4-{4-[4-(4-Methoxyl-henyl)-1-(2-dimethylamin-1-yl-ethyl)-1H-imidazol-2-yl]-piperidin-1-yl}-7,8-dihydro-5H-pteridin-6-one]
> 1000	> 1000	CN(C)CCn1cc(-c2ccccc2)nc1C1CCN(c2ncnc3c2NC(=O)CN3)CC1 [Compound A53, 4-{4-[4-(Phenyl)-1-(2-dimethylamin-1-yl-ethyl)-1H-imidazol-2-yl]-piperidin-1-yl}-7,8-dihydro-5H-pteridin-6-one]
101 to 500	26 to 100	Cc1cccc(-c2cn(CCN(C)C)c(C3CCN(c4ncnc5c4NC(=O)CN5)CC3)n2)c1 [Compound A54, 4-{4-[4-(3-MethylPhenyl)-1-(2-dimethylamin-1-yl-ethyl)-1H-imidazol-2-yl]-piperidin-1-yl}-7,8-dihydro-5H-pteridin-6-one]
> 1000	> 1000	CN(C)CCn1cc(C(F)(F)F)nc1C1CCN(c2ncnc3c2NC(=O)CN3)CC1 [Compound A55, 4-{4-[4-(4-trifouromethyl)-1-(2-dimethylamino-1-yl-ethyl)-1H-imidazol-2-yl]-piperidin-1-yl}-7,8-dihydro-5H-pteridin-6-one]
< 25	26 to 100	O=C1CNc2ncnc(N3CCC(c4nc(-c5ccc(F)c(F)c5)cn4CCN4CCCC4)CC3)c2N1 [Compound A56, 4-{4-[4-(3,4-DifluoroPhenyl)-1-(2-pyrrolidin-1-yl-ethyl)-1H-imidazol-2-yl]-piperidin-1-yl}-7,8-dihydro-5H-pteridin-6-one]
